Source: patent publication US11352371B2, “Thienopyrimidine derivatives as ACC inhibitors and uses thereof” (Gilead Sciences, Inc., priority 2019, dated 2022)

System: HepG2 cells
Experiment: In vitro De Novo Lipogenesis (DNL) assay, 13C-acetate incorporation into palmitic acid
Type: cell-based
Conditions: Homo sapiens, 1 hour preincubation, 24 hours with 10 mM 13C-labeled acetate
Method: De Novo Lipogenesis (DNL) was measured in vitro in HepG2 cells by quantifying the incorporation of ^13C-labeled acetate into palmitic acid.
HepG2 cells were plated in growth medium (DMEM (Corning cat #15-018-CM) supplemented with 10% FBS (HyClone cat #SH30071-03), and 1× penicillin, streptomycin, glutamine (Corning cat #30-009-CI)) at 10,000 cells/well in a 384-well cell culture-treated plate (Greiner cat #781091). The cells were then incubated overnight at 37° C., 5% CO2. The next day, the cells were washed twice with sterile DPBS (Corning cat #21-031-CM) and the culture medium was changed to fresh growth medium. The compounds of interest were dosed to cells, followed by a 1 hour incubation at 37° C., 5% CO2. ^13C-labeled acetate (Sigma-Aldrich cat #279315-1G) was added to the culture medium at a concentration of 10 mM and the cells were incubated for 24 hours at 37° C., 5% CO2.
In order to analyze the lipid content of the HepG2 cells, the culture medium was removed and the cells were lysed by adding 30 μL of 0.1 M NaOH. After 5 minutes of incubation at room temperature, 15 μL of cell lysate was transferred to a 384-well deep-well plate (Sigma-Aldrich cat #BR701355-48EA) containing 15 μL of 7.3% KOH in ethanol and mixed. This plate was sealed and incubated at 70° C. for 4 hours to hydrolyze the lipids to free fatty acids. 100 μL of acetonitrile was then added and the plate was spun at 3,700 g for 20 minutes to separate the organic and aqueous phases. 50 μL from the top (organic) phase was transferred to a new 384-well plate (NUNC cat #264573) and the samples were analyzed by mass spectrometry using a RapidFire coupled to a QTOF mass spectrometer. The sum of the area under curve (AUC) for palmitate containing 3 to 7 ^13C was normalized with the AUC of oleate and plotted against compound concentration to determine the potency of ACC inhibitors. […]

EC50 [nM] | Structure (SMILES)
41.1 | COc1ccccc1[C@H](Cn1c(=O)n([C@@H](C)C(=O)NS(=O)(=O)C(C)(C)C)c(=O)c2c(C)c(-c3ncco3)sc21)O[C@@H]1C[C@H]2CC[C@@H](C1)O2 [Example 17, (S)-2-(1-((R)-2-(((1R,3s,5S)-8-oxabicyclo[3.2.1]octan-3-yl)oxy)-2-(2-methoxyphenyl)ethyl)-5-methyl-6-(oxazol-2-yl)-2,4-dioxo-1,4-dihydrothieno[2,3-d]pyrimidin-3(2H)-yl)-N-(tert-butylsulfonyl)propanamide]
1 | COc1ccccc1[C@H](Cn1c(=O)n([C@H](C)C(=O)NS(=O)(=O)C2(C)CC2)c(=O)c2c(C)c(-c3ncco3)sc21)O[C@@H]1C[C@H]2CC[C@@H](C1)O2 [Example 18, (R)-2-(1-((R)-2-(((1R,3s,5S)-8-oxabicyclo[3.2.1]octan-3-yl)oxy)-2-(2-methoxyphenyl)ethyl)-5-methyl-6-(oxazol-2-yl)-2,4-dioxo-1,4-dihydrothieno[2,3-d]pyrimidin-3(2H)-yl)-N-((1-methylcyclopropyl)sulfonyl)propanamide]
1 | COc1ccccc1[C@H](Cn1c(=O)n(C(C)(C)C(=O)NS(=O)(=O)C2(C)CC2)c(=O)c2c(C)c(-n3nccn3)sc21)O[C@@H]1C[C@H]2CC[C@@H](C1)O2 [Example 19, 2-(1-((R)-2-(((1R,3s,5S)-8-oxabicyclo[3.2.1]octan-3-yl)oxy)-2-(2-methoxyphenyl)ethyl)-5-methyl-2,4-dioxo-6-(2H-1,2,3-triazol-2-yl)-1,4-dihydrothieno[2,3-d]pyrimidin-3(2H)-yl)-2-methyl-N-((1-methylcyclopropyl)sulfonyl)propanamide]
29.7 | Cc1c(-n2nccn2)sc2c1c(=O)n(C(C)(C)C(=O)NS(=O)(=O)C1(C)CC1)c(=O)n2C[C@H](O[C@H]1C[C@H]2CC[C@@H](C1)O2)c1ccccc1OC(F)F [Example 21, 2-(1-((R)-2-(((1R,3r,5S)-8-oxabicyclo[3.2.1]octan-3-yl)oxy)-2-(2-(difluoromethoxy)phenyl)ethyl)-5-methyl-2,4-dioxo-6-(2H-1,2,3-triazol-2-yl)-1,4-dihydrothieno[2,3-d]pyrimidin-3(2H)-yl)-2-methyl-N-((1-methylcyclopropyl)sulfonyl)propanamide]
916 | Cc1c(-n2nccn2)sc2c1c(=O)n(C1(C(=O)NS(=O)(=O)C(C)(C)C)CC1)c(=O)n2C[C@H](O[C@H]1C[C@H]2CC[C@@H](C1)O2)c1ccccc1OC(F)F [Example 22, 1-(1-((R)-2-(((1R,3r,5S)-8-oxabicyclo[3.2.1]octan-3-yl)oxy)-2-(2-(difluoromethoxy)phenyl)ethyl)-5-methyl-2,4-dioxo-6-(2H-1,2,3-triazol-2-yl)-1,4-dihydrothieno[2,3-d]pyrimidin-3(2H)-yl)-N-(tert-butylsulfonyl)cyclopropane-1-carboxamide]
268 | Cc1c(-n2nccn2)sc2c1c(=O)n(C1(C(=O)NS(=O)(=O)C3(C)CC3)CC1)c(=O)n2C[C@H](O[C@H]1C[C@H]2CC[C@@H](C1)O2)c1ccccc1OC(F)F [Example 23, 1-(1-((R)-2-(((1R,3r,5S)-8-oxabicyclo[3.2.1]octan-3-yl)oxy)-2-(2-(difluoromethoxy)phenyl)ethyl)-5-methyl-2,4-dioxo-6-(2H-1,2,3-triazol-2-yl)-1,4-dihydrothieno[2,3-d]pyrimidin-3(2H)-yl)-N-((1-methylcyclopropyl)sulfonyl)cyclopropane-1-carboxamide]
24.3 | COCCOc1ccccc1[C@H](Cn1c(=O)n(C(C)(C)C(=O)NS(=O)(=O)C2(C)CC2)c(=O)c2c(C)c(-n3nccn3)sc21)O[C@@H]1C[C@H]2CC[C@@H](C1)O2 [Example 24, 2-(1-((R)-2-(((1R,3s,5S)-8-oxabicyclo[3.2.1]octan-3-yl)oxy)-2-(2-(2-methoxyethoxy)phenyl)ethyl)-5-methyl-2,4-dioxo-6-(2H-1,2,3-triazol-2-yl)-1,4-dihydrothieno[2,3-d]pyrimidin-3(2H)-yl)-2-methyl-N-((1-methylcyclopropyl)sulfonyl)propanamide]
1 | COc1ccccc1[C@H](Cn1c(=O)n(C2(C(=O)NS(=O)(=O)C3(C)CC3)CC2)c(=O)c2c(C)c(-n3nccn3)sc21)O[C@@H]1C[C@H]2CC[C@@H](C1)O2 [Example 25, 1-(1-((R)-2-(((1R,3s,5S)-8-oxabicyclo[3.2.1]octan-3-yl)oxy)-2-(2-methoxyphenyl)ethyl)-5-methyl-2,4-dioxo-6-(2H-1,2,3-triazol-2-yl)-1,4-dihydrothieno[2,3-d]pyrimidin-3(2H)-yl)-N-((1-methylcyclopropyl)sulfonyl)cyclopropane-1-carboxamide]
24.6 | Cc1c(-n2nccn2)sc2c1c(=O)n(C1(C(=O)NS(=O)(=O)C3(C)CC3)CC1)c(=O)n2C[C@H](O[C@@H]1C[C@H]2CC[C@@H](C1)O2)c1ccccc1OC(F)F [Example 26, 1-(1-((R)-2-(((1R,3s,5S)-8-oxabicyclo[3.2.1]octan-3-yl)oxy)-2-(2-(difluoromethoxy)phenyl)ethyl)-5-methyl-2,4-dioxo-6-(2H-1,2,3-triazol-2-yl)-1,4-dihydrothieno[2,3-d]pyrimidin-3(2H)-yl)-N-((1-methylcyclopropyl)sulfonyl)cyclopropane-1-carboxamide]
363 | Cc1c(-n2nccn2)sc2c1c(=O)n(C1(C(=O)NS(=O)(=O)C(C)(C)C)CC1)c(=O)n2C[C@H](O[C@@H]1C[C@H]2CC[C@@H](C1)O2)c1ccccc1OC(F)F [Example 27, 1-(1-((R)-2-(((1R,3s,5S)-8-oxabicyclo[3.2.1]octan-3-yl)oxy)-2-(2-(difluoromethoxy)phenyl)ethyl)-5-methyl-2,4-dioxo-6-(2H-1,2,3-triazol-2-yl)-1,4-dihydrothieno[2,3-d]pyrimidin-3(2H)-yl)-N-(tert-butylsulfonyl)cyclopropane-1-carboxamide]
0.9 | Cc1c(-n2nccn2)sc2c1c(=O)n(C1(C(=O)NS(=O)(=O)C3(C)CC3)CC1)c(=O)n2C[C@H](O[C@@H]1C[C@H]2CC[C@@H](C1)O2)c1cc(F)ccc1OC(F)F [Example 28, 1-(1-((R)-2-(((1R,3s,5S)-8-oxabicyclo[3.2.1]octan-3-yl)oxy)-2-(2-(difluoromethoxy)-5-fluorophenyl)ethyl)-5-methyl-2,4-dioxo-6-(2H-1,2,3-triazol-2-yl)-1,4-dihydrothieno[2,3-d]pyrimidin-3(2H)-yl)-N-((1-methylcyclopropyl)sulfonyl)cyclopropane-1-carboxamide]
10.2 | Cc1c(-n2nccn2)sc2c1c(=O)n(C1(C(=O)NS(=O)(=O)C(C)(C)C)CC1)c(=O)n2C[C@H](O[C@@H]1C[C@H]2CC[C@@H](C1)O2)c1cc(F)ccc1OC(F)F [Example 29, 1-(1-((R)-2-(((1R,3s,5S)-8-oxabicyclo[3.2.1]octan-3-yl)oxy)-2-(2-(difluoromethoxy)-5-fluorophenyl)ethyl)-5-methyl-2,4-dioxo-6-(2H-1,2,3-triazol-2-yl)-1,4-dihydrothieno[2,3-d]pyrimidin-3(2H)-yl)-N-(tert-butylsulfonyl)cyclopropane-1-carboxamide]
33.1 | COCCOc1ccccc1[C@H](Cn1c(=O)n(C2(C(=O)NS(=O)(=O)C3(C)CC3)CC2)c(=O)c2c(C)c(-n3nccn3)sc21)O[C@@H]1C[C@H]2CC[C@@H](C1)O2 [Example 30, 1-(1-((R)-2-(((1R,3s,5S)-8-oxabicyclo[3.2.1]octan-3-yl)oxy)-2-(2-(2-methoxyethoxy)phenyl)ethyl)-5-methyl-2,4-dioxo-6-(2H-1,2,3-triazol-2-yl)-1,4-dihydrothieno[2,3-d]pyrimidin-3(2H)-yl)-N-((1-methylcyclopropyl)sulfonyl)cyclopropane-1-carboxamide]
1.4 | COc1ccc(F)cc1[C@H](Cn1c(=O)n(C(C)(C)C(=O)NS(=O)(=O)C2(C)CC2)c(=O)c2c(C)c(-c3ncsn3)sc21)O[C@@H]1C[C@H]2CC[C@@H](C1)O2 [Example 31, 2-(1-((R)-2-(((1R,3s,5S)-8-oxabicyclo[3.2.1]octan-3-yl)oxy)-2-(5-fluoro-2-methoxyphenyl)ethyl)-5-methyl-2,4-dioxo-6-(1,2,4-thiadiazol-3-yl)-1,4-dihydrothieno[2,3-d]pyrimidin-3(2H)-yl)-2-methyl-N-((1-methylcyclopropyl)sulfonyl)propanamide]
9.9 | COc1ccccc1[C@H](Cn1c(=O)n(C(C)(C)C(=O)NS(=O)(=O)C2(C)CC2)c(=O)c2c(C)c(C#N)sc21)O[C@@H]1C[C@H]2CC[C@@H](C1)O2 [Example 32, 2-(1-((R)-2-(((1R,3s,5S)-8-oxabicyclo[3.2.1]octan-3-yl)oxy)-2-(2-methoxyphenyl)ethyl)-6-cyano-5-methyl-2,4-dioxo-1,4-dihydrothieno[2,3-d]pyrimidin-3(2H)-yl)-2-methyl-N-((1-methylcyclopropyl)sulfonyl)propanamide]
